Results reported in ChEMBL document CHEMBL4680129, “Hit-to-lead optimization of novel 2-alkylaminomethylquinoline derivatives as anti-chagas agents” (Eur J Med Chem, 2020).
Activity calls are given as the source filed them. The calls are words filed in the database; no cut-off is given here.

Tests used:
[1] = test system: Trypanosoma cruzi; experiment: Antitrypanosomal activity against Trypanosoma cruzi epimastigotes measured after 72 hrs by Neubauer hemocytometer counting method; format: functional, organism-based
[2] = test system: Trypanosoma cruzi; experiment: Antitrypanosomal activity against bloodstream Trypanosoma cruzi trypomastigotes measured after 24 hrs by Neubauer chamber method; format: functional, organism-based
[3] = Cytotoxicity against African green monkey Vero cells assessed as reduction in cell viability measured after 24 hrs by MTT assay; format: cell-based; details: chlorocebus sabaeus
[4] = Selectivity index, ratio of CC50 African green monkey Vero cells to IC50 for Trypanosoma cruzi epimastigotes; format: toxicity; details: read-out: Selectivity Index
[5] = Selectivity index, ratio of CC50 African green monkey Vero cells to IC50 for Trypanosoma cruzi trypomastigotes; format: toxicity; details: read-out: Selectivity Index
[6] = test system: Trypanosoma cruzi; experiment: Antitrypanosomal activity against […] expressing beta-galactosidase infected in african green monkey VERO cells incubated for 5 days measured by microplate reader assay; format: functional, organism-based; details: 120 h
[7] = Selectivity index, ratio of CC50 African green monkey Vero cells to IC50 for Trypanosoma cruzi amastigotes; format: toxicity; details: read-out: Selectivity Index
[8] = test system: Trypanosoma cruzi; experiment: Anti-chagasic activity against Trypanosoma cruzi trypomastigotes infected in C3H mouse assessed as reduction in parasitemia at 10 mg/kg, po treated 10 days post infection for 7 consecutive days by Neubauer chamber counting method relative to control; format: functional; design: scale not given: the % may be the effect or the level left; details: time 7 day
[9] = test system: Trypanosoma cruzi; experiment: Anti-chagasic activity against Trypanosoma cruzi trypomastigotes infected in C3H mouse assessed as reduction in parasitemia at 50 mg/kg, po treated 10 days post infection for 7 consecutive days by Neubauer chamber counting method relative to control; format: functional; details: time 7.0 day
[10] = test system: Trypanosoma cruzi; experiment: Anti-chagasic activity against Trypanosoma cruzi trypomastigotes infected in C3H mouse assessed as increase in body weight at 10 mg/kg, po treated 10 days post infection measured on day 19 (reference value: -1.8%); format: functional; details: time 9.0 day
[11] = Toxicity in C3H mouse infected with Trypanosoma cruzi trypomastigotes assessed as mortality at 10 to 50 mg/kg, po treated 10 days post infection for 7 consecutive days; format: organism-based; details: in vivo, 168 h, dose 10-50 mg/kg, time 7 day
[12] = test system: Trypanosoma cruzi; experiment: Anti-chagasic activity against Trypanosoma cruzi trypomastigotes infected in C3H mouse assessed as physically healthy with shiny appearance at 10 mg/kg, po treated 10 days post infection measured on day 19; format: functional, organism-based; details: time 9.0 day
[13] = test system: Trypanosoma cruzi; experiment: Anti-chagasic activity against Trypanosoma cruzi trypomastigotes infected in C3H mouse assessed as well-groomed fur and alert at 10 mg/kg, po treated 10 days post infection measured on day 19; format: functional, organism-based; details: time 9.0 day
[14] = test system: Trypanosoma cruzi; experiment: Anti-chagasic activity against Trypanosoma cruzi trypomastigotes infected in C3H mouse assessed as active behaviour at 10 mg/kg, po treated 10 days post infection measured on day 19; format: functional, organism-based; details: time 9.0 day

Row | IC50 [1] [µM] | IC50 [2] [µM] | Structure (SMILES) | CC50 at 24 h [3] [µM] | selectivity ratio [4] | selectivity ratio [5] | IC50 [6] [µM] | selectivity ratio [7] | Activity [8] [%] | Activity [9] | Activity [10] | Activity [11] | Activity [12] | Activity [13] | Activity [14]
1 | 4.2 | 56.1 | O=C(O)c1c(CN2CCN(CCO)CC2)nc2ccc(Cl)cc2c1-c1ccccc1 | 36 | 8.6 | 0.6 |  |  |  |  |  |  |  |  | 
2 | 11.2 | 11.9 | O=C(O)c1c(CNCCN2CCOCC2)nc2ccc(Cl)cc2c1-c1ccccc1 | 221 | 19.7 | 18.5 |  |  |  |  |  |  |  |  | 

Row | Structure (SMILES) | IC50 [1] [µM] | IC50 [2] [µM] | CC50 at 24 h [3] [µM] | selectivity ratio [4] | selectivity ratio [5] | IC50 [6] [µM] | selectivity ratio [7] | Activity [8] [%] | Activity [9] | Activity [10] | Activity [11] | Activity [12] | Activity [13] | Activity [14]
3 | O=C(Cn1ccnc1[N+](=O)[O-])NCc1ccccc1 [BENZNIDAZOLE] | 5.8 | 34.1 | 706 | 122 | 20.7 | 3.6 | 196 | 58.9 | inactive | inactive | Non-Toxic | Active | Active | Active
